Measurements as given in patent US9028845B2, “Chimeric immunomodulatory compounds and methods of using the same-IV” (Dynavax Technologies Corporation, priority 2001, dated 2015).
Entries after “also recorded” stand apart in the source; their conditions may differ.

System: human PBMCs
Assay: Human PBMC cytokine response assay (IFN-γ and IFN-α in cell-free medium by ELISA), with or without cPLGA;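 on IFN-α (pg/ml) mean: 20 µg/mL compound for 24 hours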;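 on IFN-γ (pg/ml) mean: 20 µg/mL compound for 24 hours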
Assay type: cell-based
Conditions: for immunomodulatory activity (IFN-γ / IFN-α secretion), in words: used alone (no cPLGA)
[1] = Table 25, mean of donors 28250-28253
[2] = donor 28066, 20 ug/ml, 24 h, + PLGA = premixed with 100 μg/ml cPLGA
[3] = donor 28067, 20 ug/ml, 24 h, + PLGA = premixed with 100 μg/ml cPLGA
[4] = donor 28068, 20 ug/ml, 24 h, + PLGA = premixed with 100 μg/ml cPLGA
[5] = mean of Donors 3-4, 20 μg/ml, 24 h
[6] = mean of Donors 9-12, 20 μg/ml, 24 h
[7] = mean of donors 28065-28068, 20 ug/ml, 24 h, + PLGA = premixed with 100 μg/ml cPLGA

5′-TCGTCGA-3′-HEG-5′-AGATGAT-3′-HEG-5′-ACGTTCG-3′ [Compound C-56]
IFN-α (Table 13, donor 28156): 98 pg/mL
IFN-γ (Table 13, donor 28156): 1223 pg/mL
IFN-α (Table 13, donor 28157): 415 pg/mL
IFN-γ (Table 13, donor 28157): 543 pg/mL
IFN-α (Table 13, donor 28158): 57 pg/mL
IFN-γ (Table 13, donor 28158): 203 pg/mL
IFN-α (Table 13, donor 28159): 131 pg/mL
IFN-γ (Table 13, donor 28159): 563 pg/mL
IFN-α mean (Table 13, mean of donors): 175 pg/mL
IFN-γ mean (Table 13, mean of donors): 633 pg/mL
immunomodulatory activity (IFN-γ / IFN-α secretion), in words: most active CICs

5′-TCG-3′-HEG-5′-TCG-3′-HEG-5′-TCG-3′-HEG-5′-TCG-3′-HEG-5′-TCG-3′-HEG-5′-TCG-3′ [Compound C-32]
IFN-α (Table 9, donor 28089): 285 pg/mL
IFN-γ (Table 9, donor 28089): 0 pg/mL
IFN-α (Table 9, donor 28090): 31 pg/mL
IFN-γ (Table 9, donor 28090): 5 pg/mL
IFN-α (Table 9, donor 28098): 46 pg/mL
IFN-γ (Table 9, donor 28098): 11 pg/mL
IFN-α (Table 9, donor 28099): 59 pg/mL
IFN-γ (Table 9, donor 28099): 35 pg/mL
IFN-α mean (Table 9, mean of donors): 106 pg/mL
IFN-γ mean (Table 9, mean of donors): 13 pg/mL
IFN-α (Table 10, donor 28042): 0 pg/mL
IFN-γ (Table 10, donor 28042): 91 pg/mL
IFN-α (Table 10, donor 28043): 0 pg/mL
IFN-γ (Table 10, donor 28043): 19 pg/mL
IFN-α (Table 10, donor 28044): 8 pg/mL
IFN-γ (Table 10, donor 28044): 78 pg/mL
IFN-α (Table 10, donor 28045): 0 pg/mL
IFN-γ (Table 10, donor 28045): 17 pg/mL
IFN-α mean (Table 10, mean of donors): 2 pg/mL
IFN-γ mean (Table 10, mean of donors): 51 pg/mL
activity when formulated with cPLGA, in words (formulated with cPLGA): more activity when formulated with cPLGA; also recorded: induced considerable IFN-γ and IFN-α when formulated with cPLGA
immunomodulatory activity (IFN-γ / IFN-α secretion), in words: had activity when used alone

(5′-TCGAACGTTCGA-3′ (SEQ ID NO: 155)-HEG)3-trebler-HEG-5′-T-3′ (three copies HEG-trebler branched, HEG-T, chemistry not fully specified) [Compound C-175]
IFN-α (Example 58, 0.8 ug/ml, donor 1): 21783 pg/mL
IFN-α (Example 58, 0.8 ug/ml, donor 2): 16605 pg/mL
IFN-α (Example 58, 0.8 ug/ml, donor 3): 851 pg/mL
IFN-α (Example 58, 0.8 ug/ml, donor 4): 2874 pg/mL
IFN-α mean (Example 58, 0.8 ug/ml, mean of four individuals): 10528 pg/mL
IFN-α (Example 58, 4 ug/ml, donor 1): 7134 pg/mL
IFN-α (Example 58, 4 ug/ml, donor 2): 6779 pg/mL
IFN-α (Example 58, 4 ug/ml, donor 3): 906 pg/mL
IFN-α (Example 58, 4 ug/ml, donor 4): 1951 pg/mL
IFN-α mean (Example 58, 4 ug/ml, mean of four individuals): 4193 pg/mL
IFN-α (Example 58, 20 ug/ml, donor 1): 2250 pg/mL
IFN-α (Example 58, 20 ug/ml, donor 2): 732 pg/mL
IFN-α (Example 58, 20 ug/ml, donor 3): 52 pg/mL
IFN-α (Example 58, 20 ug/ml, donor 4): 52 pg/mL
IFN-α mean (Example 58, 20 ug/ml, mean of four individuals): 771 pg/mL
IFN-α from human PBMC compared with parent oligonucleotide P-17, in words (low doses (e.g., 0.8 ug/ml), four individuals): induce significantly more IFN-α

5′-TGACTGTGAAGGTTAGAGATGA-3′ (SEQ ID NO: 136) (listed as DNA, chemistry not fully specified) [Compound P-8, reference compound]
IFN-α (Table 13, donor 28156): 16 pg/mL
IFN-γ (Table 13, donor 28156): 255 pg/mL
IFN-α (Table 13, donor 28157): 9 pg/mL
IFN-γ (Table 13, donor 28157): 20 pg/mL
IFN-α (Table 13, donor 28158): 24 pg/mL
IFN-γ (Table 13, donor 28158): 31 pg/mL
IFN-α (Table 13, donor 28159): 8 pg/mL
IFN-γ (Table 13, donor 28159): 31 pg/mL
IFN-α mean (Table 13, mean of donors): 14 pg/mL
IFN-γ mean (Table 13, mean of donors): 84 pg/mL

5′-TCGTCG-3′ [Compound P-2, reference compound]
IFN-α (pg/ml) Donor 3 (Donor 3, 20 μg/ml, 24 h): 0 pg/mL
IFN-γ (pg/ml) Donor 3 (Donor 3, 20 μg/ml, 24 h): 0 pg/mL
IFN-α (pg/ml) Donor 4 (Donor 4, 20 μg/ml, 24 h): 40 pg/mL
IFN-γ (pg/ml) Donor 4 (Donor 4, 20 μg/ml, 24 h): 4 pg/mL
IFN-α Donor 9 (Donor 9, 20 μg/ml, 24 h): 0
IFN-γ Donor 9 (Donor 9, 20 μg/ml, 24 h): 2
IFN-α Donor 10 (Donor 10, 20 μg/ml, 24 h): 2
IFN-γ Donor 10 (Donor 10, 20 μg/ml, 24 h): 3
IFN-α Donor 11 (Donor 11, 20 μg/ml, 24 h): 1
IFN-γ Donor 11 (Donor 11, 20 μg/ml, 24 h): 1
IFN-α Donor 12 (Donor 12, 20 μg/ml, 24 h): 4
IFN-γ Donor 12 (Donor 12, 20 μg/ml, 24 h): 2
IFN-a (Table 25, donor 28250): 16 pg/mL
IFN-g (Table 25, donor 28250, polynucleotides/spacers at amounts equivalent to the CIC, spacers alone 9 uM): 7 pg/mL
IFN-a (Table 25, donor 28251): 16 pg/mL
IFN-g (Table 25, donor 28251): 25 pg/mL
IFN-a (Table 25, donor 28252): 25 pg/mL
IFN-g (Table 25, donor 28252): 53 pg/mL
IFN-a (Table 25, donor 28253): 16 pg/mL
IFN-g (Table 25, donor 28253): 1 pg/mL
IFN-a mean [1]: 18 pg/mL
IFN-g mean [1]: 22 pg/mL
IFN-γ (pg/ml) 28065 (donor 28065 (high background), 20 ug/ml, 24 h, + PLGA = premixed with 100 μg/ml cPLGA, 1000 = outside assay limits): 79 pg/mL
IFN-α (pg/ml) 28065 (donor 28065, 20 ug/ml, 24 h, + PLGA = premixed with 100 μg/ml cPLGA): 0 pg/mL
IFN-α (pg/ml) 28066 [2]: 3 pg/mL
IFN-γ (pg/ml) 28066 [2]: 1 pg/mL
IFN-α (pg/ml) 28067 [3]: 0 pg/mL
IFN-γ (pg/ml) 28067 [3]: 1 pg/mL
IFN-α (pg/ml) 28068 [4]: 0 pg/mL
IFN-γ (pg/ml) 28068 [4]: 0 pg/mL
IFN-α (pg/ml) mean [5]: 20 pg/mL
IFN-γ (pg/ml) mean [5]: 2 pg/mL
IFN-α mean [6]: 2
IFN-γ mean [6]: 2
IFN-α (pg/ml) mean [7]: 1 pg/mL
IFN-γ (pg/ml) mean [7]: 20 pg/mL
immunomodulatory activity (IFN-γ / IFN-α secretion), in words: did not have immunomodulatory activity; also recorded: had no activity
